Assay results as given in patent US10022372B2, “Caveolin-1 related methods for treating glioblastoma with temozolomide” (THOMAS JEFFERSON UNIVERSITY, priority 2013, dated 2018).

Assays:
[1] = cited from earlier work
[2] = tested on: Cav-1 overexpressing U-87MG cells (LV105 Cav-1); test: Annexin V / propidium iodide flow cytometry of TMZ-treated U-87MG cells; type: cell-based, human
Description: FIG. 5. […] Each group is normalized to its own DMSO control (*p<0.05 and **p<0.01 vs internal DMSO control, \p<0.01 vs TMZ treated LV105 control, n=3 per group).
U-87MG cells (50,000/well) were plated in 12-well tissue culture dishes and allowed to attach overnight prior to changing their medium into complete EMEM containing either 500 μM TMZ or DMSO control and culturing them for an additional 72 hours. Cells were then trypsinized, centrifuged at 300×g for 5 min and resuspended in binding buffer with APC-conjugated anti-Annexin V antibody (BP Biosciences) and 0.33 μg/ml Propidium Iodide (PI, KPL, Gaithersburg, Md.). All samples were run on a BD FACSCalibur flow cytometer (BD Biosciences). Cells were quantified according to staining as follows: viable (Annexin V negative, PI negative), early apoptotic (Annexin V positive, PI negative), late apoptotic (Annexin V positive, PI positive), and dead (Annexin V negative, PI positive).

[3] = tested on: three different GBM-derived cell lines; conditions: in vitro administration, Boyden-chamber assay; cited from earlier work

| Molecule | stability at acidic pH ([1]; pH <5) | stability at pH>7 ([1]; pH >7) | increase in early apoptotic cells compared to TMZ-treated LV105 control cells ([2]; Cav-1 overexpressing U-87MG cells, 500 μM, 72 hours, p<0.01) [%] | cytotoxicity at 500 µM ([2]; Homo sapiens, U-87 MG, 72 h, read-out: reduction in cell viability compared to TMZ treated LV105 control cells) [%] | invasion [3] |
| --- | --- | --- | --- | --- | --- |
| Cn1nnc2c(C(N)=O)ncn2c1=O [temozolomide, 3,4-dihydro-3-methyl-4-oxoimidazo[5,1-d]-αs-tetrazine-8-carboxamide] | stable | labile | > 400 | 5.5 |  |
| full length Cav-1: full length Caveolin-1 protein administered in vitro (protein, UniProt Q03135 1-178, looked up, full-length, full length Caveolin-1 protein administered in vitro) MSGGKYVDSEGHLYTVPIREQGNIYKPNNKAMADELSEKQVYDAHTKEIDLVNRDPKHLNDDVVKIDFEDVIAEPEGTHSFDGIWKASFTTFTVTKYWFYRLLSALFGIPMALIWGIYFAILSFLHIWAVVPCIKSFLIEIQCISRVYSIYVHTVCDPLFEAVGKIFSNVRINLQKEI |  |  |  |  | prevented invasion |
